Here are results for 24 compounds from the SangsterLogP compilation.

This series can be described thus: method code SF-AS, from DOI: 10.1002/ardp.19893220504, PMID: 2569302. The note with it: pH 7.4.
In turn, `COc1ccc2c(=O)c(C)c(-c3ccc(Cl)cc3)oc2c1CN1CCCC1` displayed a logD of 2.75. With `COc1ccc2c(=O)c(C)c(-c3ccc(F)cc3)oc2c1CN1CCOCC1`, the logD worked out at 3.26. The compound `COc1ccc2c(=O)c(C)c(-c3ccc(C)cc3)oc2c1CN1CCCCC1` registered a logD of 3.13. The compound `COc1ccc2c(=O)c(C)c(-c3ccc(C)cc3)oc2c1CN1CCCC1` showed a logD of 2.5. `COc1ccc2c(=O)c(C)c(-c3ccc(C)cc3)oc2c1CN(C)C` returned a logD of 2.41. For `COc1ccc2c(=O)c(C)c(-c3ccc([N+](=O)[O-])cc3)oc2c1CN(C)C`, the logD stood at 1.73. Consider `COc1ccc2c(=O)c(C)c(-c3ccc(F)cc3)oc2c1CN1CCCC1`, for which the logD was found to be 2.13. `COc1ccc2c(=O)c(C)c(-c3ccc(C)cc3)oc2c1CN1CCOCC1` returned a logD of 3.71.

Compound `COc1ccc2c(=O)c(C)c(-c3ccccc3)oc2c1CN1CCCCC1` displayed a pH-dependent lipophilicity (logD) of 2.63. In turn, `CCN(CC)Cc1c(OC)ccc2c(=O)c(C)c(-c3ccc(F)cc3)oc12` yielded a logD of 1.99. In turn, `COc1ccc2c(=O)c(C)c(-c3ccc(Cl)cc3)oc2c1CN1CCOCC1` yielded a log distribution coefficient (logD) of 3.94.

`COc1ccc2c(=O)c(C)c(-c3ccc([N+](=O)[O-])cc3)oc2c1CN1CCOCC1` had a logD of 3.02. In turn, `CCN(CC)Cc1c(OC)ccc2c(=O)c(C)c(-c3ccc(Cl)cc3)oc12` registered a logD of 2.66. For the compound `COc1ccc2c(=O)c(C)c(-c3ccc(Cl)cc3)oc2c1CN1CCCCC1`, the logD was 3.46. Regarding `COc1ccc2c(=O)c(C)c(-c3ccc(F)cc3)oc2c1CN(C)C`, the pH-dependent lipophilicity (logD) was found to be 1.97. Consider `COc1ccc2c(=O)c(C)c(-c3ccc([N+](=O)[O-])cc3)oc2c1CN1CCCCC1`, for which the logD turned out to be 2.53. `CCN(CC)Cc1c(OC)ccc2c(=O)c(C)c(-c3ccc(C)cc3)oc12`: the pH-dependent lipophilicity (logD) is 2.46. This logD and that of the compound before are within 0.2 log units of each other. Next, `COc1ccc2c(=O)c(C)c(-c3ccccc3)oc2c1CN(C)C`: 1.93; `COc1ccc2c(=O)c(C)c(-c3ccc([N+](=O)[O-])cc3)oc2c1CN1CCCC1`: 1.83. Compound `CCN(CC)Cc1c(OC)ccc2c(=O)c(C)c(-c3ccccc3)oc12` had a logD of 1.99. The logD values of the last two compounds are within 0.2 log units of each other. As to `CCN(CC)Cc1c(OC)ccc2c(=O)c(C)c(-c3ccc([N+](=O)[O-])cc3)oc12`, the logD is 1.7. In turn, `COc1ccc2c(=O)c(C)c(-c3ccc(F)cc3)oc2c1CN1CCCCC1` displayed a logD of 2.71.

Take `COc1ccc2c(=O)c(C)c(-c3ccc(Cl)cc3)oc2c1CN(C)C`: the logD worked out at 2.62. The logD values of the last two compounds are within 0.2 log units of each other. Regarding `COc1ccc2c(=O)c(C)c(-c3ccccc3)oc2c1CN1CCOCC1`, the logD was 3.25.
